ChEMBL document CHEMBL1126349, “Synthesis and biological properties of 1069C: a new synthetic antitumour agent with very low cross-resistance potential” (Bioorg Med Chem Lett, 1992)
Several values for one entry are separate records, joined by “and”; a condition that tells them apart may be missing. Equal values may be shown once. Activity calls are given as the source filed them. The calls are words filed in the database; no cut-off is given here.

What was measured:
P388 [1] = assay: Compound was tested for % increase in life span of P388 tumor; type: functional, Mus musculus
P388 [2] = assay: The compound was evaluated in vitro for the inhibition of P388D1 cell colony formation.; type: functional, cell-based; settings: Mus musculus
P388 [3] = assay: The compound was evaluated in vitro for the inhibition of murine leukemia P388D1 cell proliferation.; type: functional, cell-based; settings: Mus musculus
P388 [4] = assay: Compound was tested for % increase in life span of vincristine resistant P388 tumor; type: functional, Mus musculus
[5] = biological target: Tubulin alpha chain (Sus scrofa) (UniProt P02550); assay: Compound was tested for competitive inhibition with radioligand [3H]colchicine or [3H]vinblastine at alkaloid site on mammalian tubulin; No effect
P388 [6] = assay: Compound was tested for % increase in life span of adriamycin resistant P388 tumor; type: functional, Mus musculus
Tubulin alpha chain [7] = biological target: T1, Tubulin alpha chain (Sus scrofa, UniProt P02550); assay: Compound was tested for competitive inhibition with radioligand [3H]colchicine at colchicine site of mammalian tubulin
P388 [8] = assay: The compound was evaluated in vitro for the P388 cell spindle disruption.; 0.006-0.009; type: functional, cell-based; settings: Mus musculus
Tubulin alpha chain [9] = biological target: T1, Tubulin alpha chain; assay: In vitro mammalian brain tubulin polymerization using standard assay.; type: functional
Tubulin alpha chain [10] = biological target: T1, Tubulin alpha chain; assay: The compound was evaluated in vitro for the mammalian brain tubulin polymerization using standard assay.; type: functional
P388 [11] = assay: The compound was evaluated in vitro for the P388 cell spindle disruption.; 0.02-0.04; type: functional, cell-based; settings: Mus musculus

T1 sequence (P02550 whole entry, looked up): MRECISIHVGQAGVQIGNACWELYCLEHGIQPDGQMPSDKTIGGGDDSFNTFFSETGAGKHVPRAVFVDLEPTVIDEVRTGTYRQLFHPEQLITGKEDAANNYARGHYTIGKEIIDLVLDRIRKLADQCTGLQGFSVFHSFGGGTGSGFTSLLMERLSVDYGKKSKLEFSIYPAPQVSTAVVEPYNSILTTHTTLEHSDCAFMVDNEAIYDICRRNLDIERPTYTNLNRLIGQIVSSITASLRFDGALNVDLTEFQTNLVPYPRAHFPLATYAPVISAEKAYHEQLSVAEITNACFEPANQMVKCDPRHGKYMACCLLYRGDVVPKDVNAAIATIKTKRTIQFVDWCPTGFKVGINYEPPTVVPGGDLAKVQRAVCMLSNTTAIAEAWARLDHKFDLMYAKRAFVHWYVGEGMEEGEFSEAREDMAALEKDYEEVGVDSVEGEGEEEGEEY
Sequence of Tubulin alpha chain (Sus scrofa) (P02550 whole entry, looked up): as above

Row | Structure (SMILES) | ILS (P388 [1]) | IC50 (P388 [2]) | IC50 (P388 [3]) | ILS (P388 [4]) | Activity [5] | ILS (P388 [6]) | Ki (Tubulin alpha chain [7]) | EC50 (P388 [8]) | IC50 (Tubulin alpha chain [9]) | IC50 (Tubulin alpha chain [10]) | EC50 (P388 [11])
1 | CC[C@]1(O)C[C@@H]2CN(CCc3c([nH]c4ccccc34)[C@@](C(=O)OC)(c3cc4c(cc3OC)N(C)[C@H]3[C@@](O)(C(=O)OC)[C@H](OC(C)=O)[C@]5(CC)C=CCN6CC[C@]43[C@@H]65)C2)C1 [VINBLASTINE] | ~100% | 8.2 nM | 1.7 nM | ~50% |  |  |  |  |  |  | 
2 | COC(=O)Nc1cn2nc(OCc3cc(OC)c(OC)c(OC)c3)ccc2n1 | ~147% and ~120% | 13 nM | 8.9 nM | ~170% | inactive | ~110% | 750 nM | 6 nM | 310 nM |  | 
3 | CC[C@]1(O)C[C@H]2CN(CCc3c([nH]c4ccccc34)[C@@](C(=O)OC)(c3cc4c(cc3OC)N(C=O)[C@H]3[C@@](O)(C(=O)OC)[C@H](OC(C)=O)[C@]5(CC)C=CCN6CC[C@]43[C@@H]65)C2)C1 [VINCRISTINE] | ~130% | 190 nM | 4.7 nM | ~10% |  | ~5% |  |  |  | 220 nM | 20 nM
4 | COc1cccc2c1C(=O)c1c(O)c3c(c(O)c1C2=O)C[C@@](O)(C(=O)CO)C[C@@H]3O[C@H]1C[C@H](N)[C@H](O)[C@H](C)O1 [DOXORUBICIN] | ~120% |  |  |  |  | ~25% |  |  |  |  | 
5 | COc1cc2c(c(OC)c1OC)-c1ccc(OC)c(=O)cc1[C@@H](NC(C)=O)CC2 [COLCHICINE] | ~85% | 71 nM | 0.62 nM | ~75% |  |  |  |  |  |  | 
6 | COc1cc([C@@H]2c3cc4c(cc3[C@@H](O[C@@H]3O[C@@H]5CO[C@@H](C)O[C@H]5[C@H](O)[C@H]3O)[C@H]3COC(=O)[C@H]23)OCO4)cc(OC)c1O [ETOPOSIDE] | ~80% |  |  |  |  | ~20% |  |  |  |  | 
